Literature values, collected in patent US11975103B2, “Compositions of midodrine and methods of using the same” (XENAMED CORP., priority 2016, dated 2024).

Assays:
[1] = tested on: patients with neurogenic orthostatic hypotension
[2] = after oral administration of an immediate release tablet

| Structure (SMILES) | solubility in water | standing systolic blood pressure [1] | half-life [2] | time to peak plasma levels [2] |
| --- | --- | --- | --- | --- |
| COc1ccc(OC)c(C(O)CNC(=O)CN)c1.Cl (racemic) [Midodrine hydrochloride, (±)-2-amino-N-[2-(2,5-dimethoxyphenyl)-2-hydroxyethyl]acetamide monohydrochloride] | soluble in water | significantly increases |  |  |
| COc1ccc(OC)c(C(O)CNC(=O)CN)c1 (stereo not shown) [midodrine] |  |  | approximately 25 minutes | about 30 minutes |
